# In patent US20260308159A1, “BICYCLIC HETEROARYLAMIDES HAVING GPR68 MODULATING ACTIVITY” (RECURSION PHARMACEUTICALS, INC., priority 2023, published 2026):
# Target: T1, human GPR68 (Homo sapiens, UniProt Q15743)
# T1 construct: encoding full-length human GPR68 (uniprot ID: Q15743); expressed in transfected cells; host or cells: HEK293T
# Experiment: GPR68 Biochemical Assay (Promega GloSensor cAMP assay, GPR68 antagonism)
# Type: cell-based
# Conditions: HEK293T cells transiently expressing hGPR68, antagonism of pH 5.5 stimulated cAMP, 15 min, read-out: hGPR68 IC50
# Protocol: GPR68 antagonism was determined using the Promega GloSensor™ CAMP assay (F. I. Wang et al., Methods 2021, S1046-2023 (21) 00249-8). HEK293T cells (obtained from ECACC, Cat 12022001, Lot no. 17E044) were cultured in T175 flasks (Greiner, Cat 660175) in DMEM (Gibco, Cat 11995-065) supplemented with 10% Fetal Bovine Serum (Gibco Cat 16000-044), and 100 u/mL Pen-Strep (Gibco, Cat 15140) at 37° C. and 5% CO2. GPR68 expression was achieved by transient transfection with a mammalian expression plasmid encoding full-length human GPR68 (uniprot ID: Q15743) under control of a CMV promoter. The day before transfection, cell media was aspirated and HEK293T cells were incubated with accutase (Sigma, Cat A6964) for 3-4 minutes 37° C. and 5% CO2 before being manually detached with excess DMEM and trituration. Cell density was determined by automated cell counting (Countess, Invitrogen) and adjusted to 6×10^6 cells/20 mL and transferred to 15 cm dishes (Thermo Fisher, Cat 130183) for overnight incubation at 37° C. and 5% CO2. The next day separate mammalian expression plasmids encoding hGPR68 (4 μg) and Promega GloSensor (8 μg) were diluted to 1 mL in Opti-MEM (Thermo Fisher Scientific, Cat 31985070) and incubated with 30 μL of lipofectamine 3000 (also diluted to 1 mL in Opti-MEM) for 15 minutes at room temperature and subsequently added dropwise to the plated cells. Post transfection cells were then incubated at 37° C. and 5% CO2 for at least 16 hours before transfer to assay plates the following day. Transfer was conducted by washing cells with PBS and incubating with accutase for 3-4 minutes 37° C. and 5% CO2 before being manually detached with excess DMEM and mild trituration. The suspension was then centrifuged at 192 RCF for 4 minutes in a 50 mL centrifuge tube (Greiner, Cat 227261).
# Supernatant was removed by aspiration and the cell pellet was resuspended in DMEM+1% dialysed FBS (Gibco, Cat 26400-044) and 100 u/mL Pen-Strep to a cell density of 500 cells/μL. Cells were plated into poly-L-Lysine coated 384-well white assay plates (Corning, Cat 3570) at a final volume of 40 µL and a density of 20,000 cells/well before overnight incubation at 37° C. and 5% CO2. The following day media was manually ejected from the 384-well assay plate and replaced with 10 μL GloSensor substrate (Promega, Cat E1291) prepared in pH 8.0 assay buffer (1×HBSS, 10 mM HEPES, 10 mM MOPS). Cells were incubated with this solution for 60 minutes at room temperature in the dark. Test compounds or an equivalent volume of DMSO (vehicle) were added to compounds plates to create a 9-point, half-log concentration series for each compound with a maximum final assay concentration of 50 μM and a consistent final DMSO concentration of 0.5%. Assay buffer with 0.1% BSA and 0.01% ascorbic acid was prepared at three pHs: pH 8.0, pH 5.5 and pH 4.5. pH 8.0 and 4.5 were added to the compound plate as maximum and minimum effect controls whilst pH 5.5 was added to all compound wells to stimulate GPR68 to a level corresponding to […] of maximal stimulation after addition to the cells already in pH 8.0 (assay acceptance criteria range 70-90%). DMSO/Compound and buffer was added to the plated cells containing the GloSensor substrate and incubated for 15 minutes at room temperature before being read on a microplate reader (BMG PHERAstar, optic module LUM Plus with Gain 3600). Data was exported and analysed in excel and Graphpad prism (version 9). Assay QC acceptance criteria required the maximum and minimum controls to return a Z′≥0.5, the EC80 to be 80%±10% of expected and the reference ligand pIC50 to be within one-half-log unit of its historical IC50. Percent inhibition was calculated using the mean EC80 (pH 5.5) and mean minimum effect control (pH 8.0). Data were plotted as percentage inhibition, average±SEM. IC50, Emax, Emin, Actual max, actual min, R^2 and fit confidence were calculated using Graphpad Prism's sigmoidal dose-response function.
# T1 sequence (Q15743 whole entry): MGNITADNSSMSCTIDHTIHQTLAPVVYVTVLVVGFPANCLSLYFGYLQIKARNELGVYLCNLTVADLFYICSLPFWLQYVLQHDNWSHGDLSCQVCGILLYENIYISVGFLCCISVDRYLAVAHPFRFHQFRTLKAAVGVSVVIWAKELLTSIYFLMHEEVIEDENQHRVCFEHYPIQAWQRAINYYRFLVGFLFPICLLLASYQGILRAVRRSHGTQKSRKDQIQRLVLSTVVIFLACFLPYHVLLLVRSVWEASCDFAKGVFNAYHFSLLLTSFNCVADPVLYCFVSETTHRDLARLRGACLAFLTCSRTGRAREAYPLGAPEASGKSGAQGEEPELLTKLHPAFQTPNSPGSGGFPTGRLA
row,SMILES,IC50 [µM]
1,"CO[C@H]1C[C@@H](NC(=O)c2ccnc3c(C(N)=O)cnn23)C1 [Compound 11, N7-(cis-3-methoxycyclobutyl)pyrazolo[1,5-a]pyrimidine-3,7-dicarboxamide]",5 to 50
2,"[2H]C([2H])([2H])OCc1nn2c(C(=O)N[C@H]3C[C@@H](OC(F)(F)F)C3)ccnc2c1C(N)=O [Compound 157, 2-(trideuteriomethoxymethyl)-N7-[cis-3-(trifluoromethoxy)cyclobutyl]pyrazolo[1,5-a]pyrimidine-3,7-dicarboxamide]",< 0.05
3,"COCc1nn2c(C(=O)Nc3cnc4c(F)cccc4c3)ccnc2c1C(N)=O [Compound 117, N7-(8-fluoro-3-quinolyl)-2-(methoxymethyl)pyrazolo[1,5-a]pyrimidine-3,7-dicarboxamide]",< 0.05
4,"COCc1nc2c(C(=O)NC3CCS(=O)(=O)c4ccccc43)ccnn2c1C(N)=O (stereo not shown) [Compound 221, N8-(1,1-dioxo-3,4-dihydro-2H-thiochromen-4-yl)-2-(methoxymethyl)imidazo[1,2-b]pyridazine-3,8-dicarboxamide]",0.05 to 0.5
5,"NC(=O)c1cnn2c(C(=O)NC3COc4ccccc4C3)ccnc12 (stereo not shown) [Compound 6, N7-chroman-3-ylpyrazolo[1,5-a]pyrimidine-3,7-dicarboxamide]",0.05 to 0.5
6,"NC(=O)c1cnn2c(C(=O)NC3CNc4ncccc4C3)ccnc12 (stereo not shown) [Compound 20, N7-(1,2,3,4-tetrahydro-1,8-naphthyridin-3-yl)pyrazolo[1,5-a]pyrimidine-3,7-dicarboxamide]",5 to 50
7,"COCc1nn2c(C(=O)NCc3cccc(F)c3)ccnc2c1C(N)=O [Compound 71, N7-[(3-fluorophenyl)methyl]-2-(methoxymethyl)pyrazolo[1,5-a]pyrimidine-3,7-dicarboxamide]",0.05 to 0.5
8,"COCc1nn2c(C(=O)NC3CCOc4cc(F)c(F)cc43)ccnc2c1C(N)=O (stereo not shown) [Compound 182, N7-(6,7-difluorochroman-4-yl)-2-(methoxymethyl)pyrazolo[1,5-a]pyrimidine-3,7-dicarboxamide]",< 0.05
9,"COCc1nn2c(C(=O)NC3COc4ncccc43)ccnc2c1C(N)=O (stereo not shown) [Compound 184, N7-(2,3-dihydrofuro[2,3-b]pyridin-3-yl)-2-(methoxymethyl)pyrazolo[1,5-a]pyrimidine-3,7-dicarboxamide]",< 0.05
10,"CC(COc1ccc(C(C)(C)C)cc1)NC(=O)c1ccnc2c(C(N)=O)cnn12 (stereo not shown) [Compound 99, N7-[1-(4-tert-butylphenoxy)propan-2-yl]pyrazolo[1,5-a]pyrimidine-3,7-dicarboxamide]",5 to 50
11,"COCc1nn2c(C(=O)NCc3ccc(C)cc3)ccnc2c1C(N)=O [Compound 72, 2-(methoxymethyl)-N7-(p-tolylmethyl)pyrazolo[1,5-a]pyrimidine-3,7-dicarboxamide]",< 0.05
12,"NC(=O)c1c(C2CC2)nc2c(C(=O)N[C@H]3CCOc4cc(F)ccc43)ccnn12 [Compound 211, 2-cyclopropyl-N8-[(4S)-7-fluorochroman-4-yl]imidazo[1,2-b]pyridazine-3,8-dicarboxamide]",< 0.05
13,"COCc1nn2c(C(=O)N[C@@H]3CCOc4cc(F)ccc43)ccnc2c1C(N)=O [Compound 166, N7-[(4R)-7-fluorochroman-4-yl]-2-(methoxymethyl)pyrazolo[1,5-a]pyrimidine-3,7-dicarboxamide]",< 0.05
14,"NC(=O)c1c(C2CCCO2)nn2c(C(=O)N[C@H]3C[C@@H](OC(F)(F)F)C3)ccnc12 (stereo partly drawn) [Compound 203, 2-tetrahydrofuran-2-yl-N7-[cis-3-(trifluoromethoxy)cyclobutyl]pyrazolo[1,5-a]pyrimidine-3,7-dicarboxamide]",0.05 to 0.5

# Now from value to compound:
row,IC50 [µM],SMILES
1,0.05 to 0.5,"COCc1nn2c(C(=O)NC3(c4ccc(F)cc4)CC3)ccnc2c1C(N)=O [Compound 127, N7-[1-(4-fluorophenyl)cyclopropyl]-2-(methoxymethyl)pyrazolo[1,5-a]pyrimidine-3,7-dicarboxamide]"
2,0.05 to 0.5,"COCc1nn2c(C(=O)NC3(C)CCc4ccccc43)ccnc2c1C(N)=O (stereo not shown) [Compound 155, 2-(methoxymethyl)-N7-(1-methylindan-1-yl)pyrazolo[1,5-a]pyrimidine-3,7-dicarboxamide]"
3,0.5 to 5,"COCc1nn2c(C(=O)NC3CCC(C)(C)c4ccccc43)ccnc2c1C(N)=O (stereo not shown) [Compound 186, N7-(4,4-dimethyltetralin-1-yl)-2-(methoxymethyl)pyrazolo[1,5-a]pyrimidine-3,7-dicarboxamide]"
4,< 0.05,"NC(=O)c1c(C2CC2)nn2c(C(=O)NC3Cc4ccccc43)ccnc12 (stereo not shown) [Compound 138, N7-(7-bicyclo[4.2.0]octa-1,3,5-trienyl)-2-cyclopropyl-pyrazolo[1,5-a]pyrimidine-3,7-dicarboxamide]"
5,0.05 to 0.5,"COCc1nn2c(C(=O)NC3CCOc4ncccc43)ccnc2c1C(N)=O (stereo not shown) [Compound 171, N7-(3,4-dihydro-2H-pyrano[2,3-b]pyridin-4-yl)-2-(methoxymethyl)pyrazolo[1,5-a]pyrimidine-3,7-dicarboxamide]"
6,< 0.05,"NC(=O)c1c(C2CC2)nn2c(C(=O)N[C@H]3CCOc4cc(F)ccc43)ccnc12 [Compound 113, 2-cyclopropyl-N7-[(4S)-7-fluorochroman-4-yl]pyrazolo[1,5-a]pyrimidine-3,7-dicarboxamide]"
7,< 0.05,"CNc1nn2c(C(=O)N[C@H]3C[C@@H](OC(F)(F)F)C3)ccnc2c1C(N)=O [Compound 145, 2-(methylamino)-N7-[cis-3-(trifluoromethoxy)cyclobutyl]pyrazolo[1,5-a]pyrimidine-3,7-dicarboxamide]"
8,< 0.05,"NC(=O)c1c(C2CC2)nc2c(C(=O)NC3Cc4ccccc43)ccnn12 (stereo not shown) [Compound 210, N8-(7-bicyclo[4.2.0]octa-1,3,5-trienyl)-2-cyclopropyl-imidazo[1,2-b]pyridazine-3,8-dicarboxamide]"
9,0.05 to 0.5,"COCc1nn2c(C(=O)N[C@H]3CC(C)(C)c4ccccc43)ccnc2c1C(N)=O [Compound 198, 2-(methoxymethyl)-N7-[(1S)-3,3-dimethylindan-1-yl]pyrazolo[1,5-a]pyrimidine-3,7-dicarboxamide]"
10,5 to 50,"NC(=O)c1cnn2c(C(=O)NCCC(F)(F)F)ccnc12 [Compound 100, N7-(3,3,3-trifluoropropyl)pyrazolo[1,5-a]pyrimidine-3,7-dicarboxamide]"
11,< 0.05,"NC(=O)c1c(C2CC2)nn2c(C(=O)NC3CCC(F)(F)CC3)ccnc12 [Compound 135, 2-cyclopropyl-N7-(4,4-difluorocyclohexyl)pyrazolo[1,5-a]pyrimidine-3,7-dicarboxamide]"
12,< 0.05,"COCc1nn2c(C(=O)NC3Cc4ccc(F)cc4C3)ccnc2c1C(N)=O (stereo not shown) [Compound 194, N7-(5-fluoroindan-2-yl)-2-(methoxymethyl)pyrazolo[1,5-a]pyrimidine-3,7-dicarboxamide]"
13,0.5 to 5,"COCc1nn2c(C(=O)NCc3ccc(O)cc3)ccnc2c1C(N)=O [Compound 197, N7-[(4-hydroxyphenyl)methyl]-2-(methoxymethyl)pyrazolo[1,5-a]pyrimidine-3,7-dicarboxamide]"

# Same assay, conditions: hGPR68 IC50, HEK293T cells transiently expressing hGPR68, antagonism of pH 5.5 stimulated cAMP, 15 min
row,IC50 [µM],SMILES
1,0.05 to 0.5,"CC(C)(O)c1nn2c(C(=O)NC3CC(F)(F)C3)ccnc2c1C(N)=O [Compound 213, N7-(3,3-difluorocyclobutyl)-2-(1-hydroxy-1-methyl-ethyl)pyrazolo[1,5-a]pyrimidine-3,7-dicarboxamide]"
